Experimental data reported in article PMC10545747, “Development of cyclopeptide inhibitors of cGAS targeting protein-DNA interaction and phase separation” (Nature Communications, 2023).
Several values for one entry are separate records, joined by “and”; a condition that tells them apart may be missing. Equal values may be shown once. Square brackets hold non-standard residues; d marks the D form. Peptide text beside a SMILES is read from it.

Key:
[1] = tested on: THP1-Lucia ISG cells; assay: Luciferase reporter assay, dsDNA stimulation; type: cell-based, human; set-up: Type I interferon response, luciferase activity, Fig. 1c / luciferase activity, Fig. 2a: scale not given here; settings: dsDNA 24 h; replicate values
Text: (§1) To screen direct cGAS inhibitors targeting protein-DNA interface from our developed focused library of macrocyclic peptides, we applied an RNA-based fluorescent biosensor for 2’,3’-cGAMP to detect cGAS activity in vitro (Supplementary Fig. 1a)[49]. The formation of 2’,3’-cGAMP from ATP and GTP was catalyzed by recombinant human cGAS enzyme (hcGAS-ΔN, residues 147–522, Supplementary Fig. 1b) in the presence of ISD (interferon stimulatory DNA, a 45-bp dsDNA), which was readily quantified by the RNA-based fluorescent biosensor and was further confirmed by ion exchange chromatography (Supplementary Fig. 1c). […] Subsequently, a total of 90 macrocyclic peptides were screened at a concentration of 20 μM (Fig. 1a and Supplementary Fig. 1e), and 4 hits (XQ2, XQ8, XQ19, and XQ46) were obtained for further testing at a cut-off of 40% inhibition (Supplementary Table 1). To evaluate the inhibitory effect of the hits against cGAS in cells, we employed real-time quantitative PCR (qPCR) to examine mRNA levels of IFNΒ1 in THP1 cells. The reported cGAS inhibitor RU.521 was used as the positive control, and the non-active peptide XQ28 in the screening assay was used as the negative control. […] The inhibition of cGAS by these hits was further confirmed in the reporter cell line THP1-Lucia ISG (Invivogen) that expresses secreted luciferase induced by an IRF3-inducible ISG54 promoter (Fig. 1c). The discrepancy between the inhibitory effect of the hits in protein and cellular assays may be attributed to their different cellular permeability.
THP1-Lucia ISG cells (Invivogen) were seeded into a 96-well plate and incubated with RU.521 (Invivogen) or XQ2 for the indicated time, and then transfected with dsDNA by lipofectamine 2000 (Invitrogen) or infected by HSV-1 with the indicated titer for 24 h. The supernatant was collected and 50 μL QUANTI-Luc Luciferase reagent (Invivogen) was added to 20 μL supernatants per well, and luciferase luminescence was detected by a microplate reader (BioTek Synergy H1) immediately.

[2] = target: T1, recombinant human cGAS enzyme (hcGAS-ΔN, residues 147–522) (Homo sapiens, UniProt Q8N884); assay: RNA-based fluorescent biosensor assay of cGAS activity (2',3'-cGAMP formation), in vitro screening; type: biochemical; settings: for Remaining activity (%), Fig. 1a source data / remaining activity at 20 µM: 20 μM, replicate values; for remaining activity at 20 µM: read-out: Remaining activity (%), Fig. 1a source data; for Inhibition % / inhibition at 20 µM: peptides screened at 20 μM, Supplementary Table 1 / Fig. S5b; for Inhibition %: 20 µM; for inhibition at 20 µM: read-out: Inhibition %
T1 construct: N-terminally truncated human cGAS (hcGAS-ΔN, residues 147–522); 6xHis-SUMO (N, cleaved yes); made in house; host or cells: Escherichia coli BL21 (DE3)
T1 sequence (Q8N884 147-522, stated change not applied): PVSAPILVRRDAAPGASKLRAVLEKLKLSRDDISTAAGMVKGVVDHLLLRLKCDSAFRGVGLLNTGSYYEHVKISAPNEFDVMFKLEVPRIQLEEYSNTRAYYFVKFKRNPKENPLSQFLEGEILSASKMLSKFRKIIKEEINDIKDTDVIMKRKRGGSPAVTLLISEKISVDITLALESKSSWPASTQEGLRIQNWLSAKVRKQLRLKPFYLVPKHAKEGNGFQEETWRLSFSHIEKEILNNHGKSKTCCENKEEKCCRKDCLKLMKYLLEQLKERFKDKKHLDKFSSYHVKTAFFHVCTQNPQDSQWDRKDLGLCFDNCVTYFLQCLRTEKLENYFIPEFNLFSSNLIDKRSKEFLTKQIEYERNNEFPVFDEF
Outline: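 In 40 mM Tris-HCl pH 7.5, 100 mM NaCl, 10 mM MgCl2, ISD (0.5 μM) started the reaction with hcGAS-ΔN (1.5 μM), ATP (1 mM) and GTP (1 mM). Incubation was 2 h at 37 °C, with compounds screened at 20 μM. 2',3'-cGAMP formed was quantified with an RNA-based fluorescent biosensor.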

[3] = tested on: dsDNA-stimulated THP1 cells; assay: qPCR of IFNB1/CXCL10/IL6 mRNA in THP1 cells stimulated by dsDNA (ISD, HSV60mer); type: cell-based, human; settings: THP1, dsDNA 6 h; hits 10 μM; replicate values
Text: as §1
The indicated cells were stimulated with either ISD (Sangon Biotech), HSV-1 (Provided by Dr. Zhengfan Jiang), HSV60mer (Sangon Biotech), SATE-cddA[70], 2’3’-cGAMP (Invivogen, Cat# tlrl-nacga23-1), ADU-S100 (MedChemExpress, Cat# HY-12885A) or Poly(I:C) (Invivogen, Cat# tlrl-pic) after XQ2 or XQ2B treatment. Total RNA was isolated from indicated cells that incubated with the drugs for indicated time or mice tissues by using NucleoZOL reagent (MACHEREY-NAGEL) according to the manufacturer’s instructions. The quantifications of mRNA levels were carried out by real-time PCR using a PerfectStart® Uni RT&qPCR Kit (TransGen Biotech) on the QuantStudio 5 qPCR machine (Applied Biosystems). Samples were carried out in triplicate and the target CT values were normalized to GAPDH CT values. Primers of qPCR used in this study can be found in Supplementary Table S2.

Remaining activity (%), Fig. 1a source data [2]	remaining activity at 20 µM [2]	Inhibition % [2]	inhibition at 20 µM [2]	SMILES	Type I interferon response, luciferase activity, Fig. 1c [1]	IFNB1 mRNA, qPCR, Fig. 1b [3]	cGAS activity in the biosensor assay [2]
39.7338% and 39.7351%	40.1%	≥ 40%	60%	CC(C)C[C@@H]1NC(=O)[C@H](CCCNC(=N)N)NC(=O)[C@H](C(C)C)NC(=O)[C@@H]2CCCN2C(=O)[C@@H](Cc2ccccc2)NC(=O)[C@H](C)NC(=O)[C@H](CCCNC(=N)N)NC(=O)[C@H](C(C)C)NC(=O)[C@H](C)NC(=O)[C@@H](Cc2ccccc2)NC1=O [XQ19, Cyclo (AfPVRLfAVR)] (cyclo(AVRA[dF]PVRL[dF]))	0.9185 and 0.6328 and 0.8726	69.3649 and 64.1779 and 70.7063	–
109.037% and 108.058%	107%	–	0%	N=C(N)NCCC[C@@H]1NC(=O)[C@@H]2CCCN2C(=O)[C@H](Cc2ccccc2)NC(=O)[C@H](CCCNC(=N)N)NC(=O)[C@@H]2CCCN2C(=O)[C@H](Cc2ccccc2)NC1=O [XQ28, Cyclo (RFPRFP)] (cyclo(FPRFPR))	1.441 and 0.666 and 1.434	80.7818 and 80.352 and 88.8517	non-active
43.44% and 43.4055%	43.8%	≥ 40%	56%	CC(C)C[C@@H]1NC(=O)[C@H](CC(C)C)NC(=O)[C@H](C(C)C)NC(=O)[C@@H]2CCCN2C(=O)[C@@H](Cc2ccccc2)NC(=O)[C@H](C)NC(=O)[C@H](CCCNC(=N)N)NC(=O)[C@H](C(C)C)NC(=O)[C@@H]2CCCN2C(=O)[C@@H](Cc2ccccc2)NC1=O [XQ46, Cyclo (AfPVLLfPVR)] (cyclo(A[dF]PVLL[dF]PVR))	0.8903 and 0.5111 and 0.5713	39.5997 and 41.1038 and 45.9315	comparable inhibitory activity as that of XQ2, XQ8 and XQ19
